In US9073967B2, “High salt-resistance antibacterial peptide and method for producing the same” (NATIONAL TSING HUA UNIVERSITY, priority 2011, dated 2015):
≈ marks a conversion by molar mass, not a printed value. Entries after “also recorded” stand apart in the source; their conditions may differ. Where a SMILES comes first, the peptide text is derived from it. [ ]: non-standard residue; d: D form. 2Nal = N[C@@H](Cc1ccc2ccccc2c1)C(=O)O

Tests used:
[1] = system: Pseudomonas aeruginosa strains ATTC 9027; assay: Antibacterial activity assay, NCCLS microdilution MIC in MHB; format: cell-based
Description: (§1) For testing the antibacterial ability of Phe-P113, Nal-P113 and Bip-P113 in different salt concentration, we use Antibacterial activity assay to perform the test. Three bacteria strains are used: Eschericha coli strains (ATCC 25922), Staphylococcus aureus strains (ATCC 25923, 29213 and 19636, methicillin-resistant) and Pseudomonas aeruginosa strains (ATCC 27853 and 9027, ampicillin-resistant).
(§2) The microdilution method of National Committee for Clinical Laboratory Standards (NCCLS) is used to evaluate ‘The minimal inhibition concentration (MIC)’. The minimum concentration that can inhibit 90% or more microbes is the ‘minimal inhibition concentration’.
(§3) In the microdilution method, the 1 μl peptide solution (The concentration is between the range of 5000 μg/ml to 78.1 μg/ml) and the 99 μl inoculums (5×10^5 CFU/ml) is mixed incubated in 96-well culture dish coated with polyethylene under 37° C. for 16 hr. Then evaluated the turbidity in O.D.600 by ELISA plate reader (Thermo Max, Molecular Devices, Sunnyvale, Calif.). Take the Muller-Hinton Broth (MHB) and inoculums suspension with adding peptides as negative and positive control group relatively. The result of MIC is the minimum concentration of peptides that can inhibit the bacteria growth (equal to or more than 90%).

[2] = system: Staphylococcus aureus strains ATCC 19636; assay: as above; format: cell-based
Description: as §1, §2, §3

[3] = system: Staphylococcus aureus strains ATCC 25923; assay: as above; format: cell-based
Description: as §1, §2, §3

[4] = system: Eschericha coli strains ATCC 25922; assay: as above; format: cell-based
Description: as §1, §2, §3

[5] = system: Pseudomonas aeruginosa strains ATCC 27853; assay: as above; format: cell-based
Description: as §1, §2, §3

[6] = system: Staphylococcus aureus strains ATCC 29213; assay: as above; format: cell-based
Description: as §1, §2, §3

[7] = system: S. aureus ATCC 25923; assay: Antibacterial ability in different salt (NaCl) concentration, LYM medium
Description: (§4) All bacteria strains of above microbes were cultured in LYM medium. […] The NaCl concentrations in LYM were divided into four groups of 50 mM, 100 mM, 200 mM, 300 mM and the microbes were cultured in the four group of LYM and diluted to a 10^4 CFU/ml bacterial solution. Then added 100 μl of the bacterial solution into 96-well culture dish and added different concentration of antibacterial peptides P113, Phe-P113, Nal-P113 or Bip-P113 to evaluate the antibacterial ability in 50 mM, 100 mM, 200 mM, 300 mM concentration of NaCl. (Note: In addition to NaCl, the LYM medium also contains 5.4 mM KCl, 5.6 mM Na2HPO4, 0.5 mM MgSO4, and 1.0 mM sodium citrate. Besides, 0.4 mg of ZnCl2, 2.0 mg of FeCl3.6H2O, 0.1 mg of CuSO4.5H2O, 0.1 mg of MnSO4.H2O, 0.1 mg of Na2B4O7.10H2O, 700 mg of amino acid mixtures without tryptophan (Clontech), and 20 mg of L-Tryptophan were added per liter of medium. Then added moderate amount of glucose, amino acid, and vitamins mixture from the RPM1-1640 Select-Amine Kit)

[8] = system: S. aureus ATCC 19636; assay: Antibacterial ability in different MgCl2 concentration; format: cell-based
[9] = system: E. coli ATCC 25922; assay: Antibacterial ability in different salt (NaCl) concentration, LYM medium
Description: as §4

[10] = system: S. aureus ATCC 19636; assay: as above
Description: as §4

[11] = system: P. arugenosa ATCC 27853; assay: as above
Description: as §4

[12] = system: Bacteria strains; assay: Antibacterial ability in different salt concentration, overall statement; conditions: different concentration of NaCl / salt
Description: as §4

[13] = system: S. aureus ATCC 25923; assay: Antibacterial ability in different MgCl2 concentration; format: cell-based
[14] = system: P. arugenosa ATCC 9027; assay: as above; format: cell-based
[15] = system: E. coli ATCC 25922; assay: as above; format: cell-based
[16] = system: P. arugenosa ATCC 9027; assay: Antibacterial ability in different salt (NaCl) concentration, LYM medium
Description: as §4

[17] = system: P. arugenosa ATCC 27853; assay: Antibacterial ability in different MgCl2 concentration; format: cell-based
[18] = system: C. tropicalis ATCC 13803 YLO86
[19] = system: S. aureus ATCC 29213; assay: Antibacterial ability in different salt (NaCl) concentration, LYM medium
Description: as §4

[20] = system: S. aureus ATCC 29213; assay: Antibacterial ability in different MgCl2 concentration; format: cell-based

Structure (SMILES): C[C@H](N)C(=O)N[C@@H](CCCCN)C(=O)N[C@@H](CCCNC(=N)N)C(=O)N[C@@H](Cc1ccc2ccccc2c1)C(=O)N[C@@H](Cc1ccc2ccccc2c1)C(=O)NCC(=O)N[C@@H](Cc1ccc(O)cc1)C(=O)N[C@@H](CCCCN)C(=O)N[C@@H](CCCNC(=N)N)C(=O)N[C@@H](CCCCN)C(=O)N[C@@H](Cc1ccccc1)C(=O)N[C@@H](Cc1ccc2ccccc2c1)C(N)=O [Nal-P113] (H-AKR[2Nal][2Nal]GYKRKF[2Nal]-NH2; N-terminus and C-terminus assumed)
- minimal inhibition concentration (MIC) [1]: 50
- minimal inhibition concentration (MIC) [2]: 6.25
- minimal inhibition concentration (MIC) [3]: 6.25
- minimal inhibition concentration (MIC) [4]: 12.5
- minimal inhibition concentration (MIC) [5]: 50
- minimal inhibition concentration (MIC) [6]: 6.25
- antibacterial ability (MIC) ([7]; NaCl 50 mM): 1.56
- antibacterial ability (MIC) ([7]; NaCl 100 mM): 3.125
- antibacterial ability (MIC) ([7]; NaCl 200 mM): 12.5
- antibacterial ability (MIC) ([7]; NaCl 300 mM): 50
- antibacterial ability (MIC) ([8]; Control group): 6.25 µg/mL
- antibacterial ability (MIC) ([8]; MgCl2 0.5 mM): 12.5 µg/mL
- antibacterial ability (MIC) ([8]; MgCl2 1.5 mM): 12.5 µg/mL
- antibacterial ability (MIC) ([8]; MgCl2 2.5 mM): 25 µg/mL
- antibacterial ability (MIC) ([9]; NaCl 50 mM): 3.125
- antibacterial ability (MIC) ([9]; NaCl 100 mM): 12.5
- antibacterial ability (MIC) ([9]; NaCl 200 mM): 25
- antibacterial ability (MIC) ([9]; NaCl 300 mM): 50
- antibacterial ability (MIC) ([10]; NaCl 50 mM): 12.5
- antibacterial ability (MIC) ([10]; NaCl 100 mM): 25
- antibacterial ability (MIC) ([10]; NaCl 200 mM): 50
- antibacterial ability (MIC) ([10]; NaCl 300 mM): 50
- antibacterial ability (MIC) ([11]; NaCl 50 mM): 1.56
- antibacterial ability (MIC) ([11]; NaCl 100 mM): 12.5
- antibacterial ability (MIC) ([11]; NaCl 200 mM): 50
- antibacterial ability (MIC) ([11]; NaCl 300 mM): >50
- antibacterial ability in different concentration of salt (in words) [12]: better than P-113; also recorded: remains their activity of antibacterial
- antibacterial ability (MIC) ([13]; Control group): 1.56 µg/mL
- antibacterial ability (MIC) ([13]; MgCl2 0.5 mM): 3.12 µg/mL
- antibacterial ability (MIC) ([13]; MgCl2 1.5 mM): 3.12 µg/mL
- antibacterial ability (MIC) ([13]; MgCl2 2.5 mM): 3.12 µg/mL
- antibacterial ability (MIC) ([14]; Control group): 3.12 µg/mL
- antibacterial ability (MIC) ([14]; MgCl2 0.5 mM): 6.25 µg/mL
- antibacterial ability (MIC) ([14]; MgCl2 1.5 mM): 6.25 µg/mL
- antibacterial ability (MIC) ([14]; MgCl2 2.5 mM): 12.5 µg/mL
- antibacterial ability (MIC) ([15]; Control group): 3.12 µg/mL
- antibacterial ability (MIC) ([15]; MgCl2 0.5 mM): 3.12 µg/mL
- antibacterial ability (MIC) ([15]; MgCl2 1.5 mM): 6.25 µg/mL
- antibacterial ability (MIC) ([15]; MgCl2 2.5 mM): 12.5 µg/mL
- antibacterial ability (MIC) ([16]; NaCl 50 mM): 6.25
- antibacterial ability (MIC) ([16]; NaCl 100 mM): 50
- antibacterial ability (MIC) ([16]; NaCl 200 mM): 50
- antibacterial ability (MIC) ([16]; NaCl 300 mM): >50
- antibacterial ability (MIC) ([17]; Control group): 1.56 µg/mL
- antibacterial ability (MIC) ([17]; MgCl2 0.5 mM): 3.12 µg/mL
- antibacterial ability (MIC) ([17]; MgCl2 1.5 mM): 3.21 µg/mL
- antibacterial ability (MIC) ([17]; MgCl2 2.5 mM): 6.25 µg/mL
- MIC [18]: 6.25 µg/mL (≈ 3.58 µM)
- antibacterial ability (MIC) ([19]; NaCl 50 mM): 1.56
- antibacterial ability (MIC) ([19]; NaCl 100 mM): 3.125
- antibacterial ability (MIC) ([19]; NaCl 200 mM): 6.25
- antibacterial ability (MIC) ([19]; NaCl 300 mM): 25
- antibacterial ability (MIC) ([20]; Control group): 1.56 µg/mL
- antibacterial ability (MIC) ([20]; MgCl2 0.5 mM): 1.56 µg/mL
- antibacterial ability (MIC) ([20]; MgCl2 1.5 mM): 1.56 µg/mL
- antibacterial ability (MIC) ([20]; MgCl2 2.5 mM): 1.56 µg/mL
